A word on the MIC: it is the lowest concentration that inhibits growth of the organism.

20 molecules from patent publication US20200375949A1, “BISPHENOL COMPOUNDS” (THE TRUSTEES OF THE UNIVERSITY OF PENNSYLVANIA, priority 2017, published 2020) can be followed below.

Structures are written as SMILES. Converted amounts (≈) assume the structure as drawn.

What all share (assay type): cell-based
Series [1] has as its system red blood cells (mechanically defibrinated sheep blood). The series can be described thus: Hemolysis assay (cell lysis). Particulars: 1 hour, 37° C. More on the design: red blood cell lysis: unit not given here. On the procedure:
The effects of the compounds described herein to lyse cells was evaluated in this example. Hemolysis assays were performed on mechanically defibrinated sheep blood (Hemostat Labs: DSB030). 1.5 mL of blood was placed into a microcentrifuge tube and centrifuged at 10,000 rpm for ten minutes. The supernatant was removed and then the cells were resuspended with 1 mL of phosphate-buffered saline (PBS). The suspension was centrifuged as previously, the supernatant was removed, and cells were resuspended two more times. The final cell suspension was diluted twentyfold with PBS. The twentyfold suspension dilution was then aliquoted into microcentrifuge tubes containing compound serially diluted in PBS. TritonX (1% by volume) served as a positive control (100% lysis marker) and sterile PBS served as a negative control (0% lysis marker). Samples were then placed in an incubator at 37° C. and shaken at 200 rpm. After 1 hour, the samples were centrifuged at 10,000 rpm for ten minutes. The absorbance of the supernatant was measured with a UV spectrometer at a 540 nm wavelength. See, e.g., Peng, Chem. Comm. 2011, 47, 4896-4898.

The subject of series [2] is Streptococcus sanguinis strain 10904. The series can be described thus: MIC assay, S. sanguinis. Particulars: 5% CO2, 37° C., 20-24 hours. An excerpt:
(§1) Streptococcus mutans wild-type strain UA159 was provided by Dr. Bettina Buttaro from Temple University Medical School, Philadelphia, Pa. Streptococcus gordonii strain DL1 and Streptococcus sanguinis strain 10904 were provided by Dr. Robert G. Quivey from University of Rochester Medical School. Streptococcus gordonii strain DL1 may be obtained from the American Type Culture Collection under accession #49818. Streptococcus sanguinis strain 10904 may be obtained from the National Collection of Type Cultures under accession #10904. Bacteria were routinely maintained on in Bacto™ Todd-Hewitt (TH) agar plates and liquid cultures were grown in Bacto™ Todd-Hewitt broth (THB). For growth of biofilms, THB was supplemented with 0.1% sucrose. Incubation was stagnant at 37° C. Bacterial strains Methicillin-Resistant Staphylococcus aureus HPV107, Staphylococcus epidermidis Fussel [NCTC 11047, R. Hugh 2466], Streptococcus sobrinus SL1 [CCM 6070, CNCTC 9/89], Enterococcus faecalis NCTC 775 [DSM 20478, JCM 8726, NCDO 581, Tissier], Pseudomonas aeruginosa [CCEB 481, MDB strain BU 277, NCIB 8295, NCPPB 1965, NCTC 10332, NRRL B-771, R. Hugh 815], Serratia marcescens BS 303 [CDC 813-60, NCIB 9155, NCTC 10211], and Acinetobacter baumannii 2208 [81, DSM 6974] were purchased from the American Type Culture Collection.
(§2) Stock solutions of compounds (10 mM) were serial diluted (200 μL, 100 μL, 50 μL, 10 μL, and 2 μL) in THB media in flat-bottom 96-well microtiter plates (total volume 100 μL). Bacterial cultures were grown in brain heart infusion or nutrient broth media to mid-exponential phase, back diluted to an OD of 0.1 and then inoculated into the 96-well plate to reach a final volume of 200 μL. Plates were inoculated at 37° C. in 5% CO2 for 20-24 hours upon which time wells were evaluated visually for bacterial growth and/or the wells' OD630 was evaluated via spectrophotometer. […] DMSO controls corresponding to each test concentration were performed. Biological triplicates were performed to confirm results.

For series [3], the system named is Streptococcus mutans wild-type strain UA159. The series can be described thus: MIC assay, S. mutans. The conditions noted are these: planktonic, 5% CO2, 37° C., 20-24 hours.
Excerpt: as §1, §2

Series [4] has as its system Streptococcus gordonii strain DL1. As to the kind of experiment: MIC assay, S. gordonii. Particulars: 5% CO2, 37° C., 20-24 hours.
Excerpt: as §1, §2

[5] abbreviates: Concentration 500 μM, TritonX 100% lysis, PBS 0% lysis.

For `COc1cc(CCc2ccc(C(C)(C)C)c(O)c2)ccc1C(C)(C)C` [Compound 1H-2, (tert-butyl)-5-(4-(tert-butyl)-3-methoxyphenethyl)phenol], the “red blood cell lysis” value in series [1] (Concentration 0.25 μM) is given as 0.13; in series [1] (Concentration 0.5 μM), −0.02; in series [1] (Concentration 1 μM) it was −0.02; in series [1] (Concentration 2 μM) it was −0.03; in series [1] (Concentration 4 μM) it was 0.16; in series [1] (Concentration 8 μM) it was −0.03. The “red blood cell lysis” value in series [1] (Concentration 16 μM) was −0.03; in series [1] (Concentration 32 μM), −0.02; in series [1] (Concentration 63 μM), 0.02; in series [1] (Concentration 125 μM), 0.12; in series [1] (Concentration 250 μM) it was 0.21; in series [1] (setting [5]), 0.33.

For the molecule `CC(C)(C)c1ccc(CCc2cccc(O)c2)cc1O` [Compound 1H-3, 2-(tert-butyl)-5-(3-hydroxyphenethyl)phenol], the “red blood cell lysis” value in series [1] (Concentration 0.25 μM) is on record as 0.11; in series [1] (Concentration 0.5 μM), 0.00; in series [1] (Concentration 1 μM), −0.03; in series [1] (Concentration 2 μM) it was −0.03; in series [1] (Concentration 4 μM), −0.03; in series [1] (Concentration 8 μM) it was 0.29. In addition, the “red blood cell lysis” value in series [1] (Concentration 16 μM) was −0.03; in series [1] (Concentration 32 μM), −0.03; in series [1] (Concentration 63 μM), 0.00; in series [1] (Concentration 125 μM), 0.46; in series [1] (Concentration 250 μM), 0.69; in series [1] (setting [5]), 0.81.

As to `COc1cccc(CCc2ccccc2O)c1` [Compound 6], the “red blood cell lysis” value is on record as 0.03 in series [1] (Concentration 0.25 μM); −0.02 in series [1] (Concentration 0.5 μM); −0.03 in series [1] (Concentration 1 μM); −0.03 in series [1] (Concentration 2 μM); 0.35 in series [1] (Concentration 4 μM); −0.03 in series [1] (Concentration 8 μM). The “red blood cell lysis” value is listed as −0.03 in series [1] (Concentration 16 μM); −0.02 in series [1] (Concentration 32 μM); 0.07 in series [1] (Concentration 63 μM); −0.02 in series [1] (Concentration 125 μM); 0.02 in series [1] (Concentration 250 μM); 0.27 in series [1] (setting [5]).

For the molecule `Cc1cc(-c2cc(C)c(O)c(C)c2)cc(C)c1O` [Compound A3], the MIC in series [2], in series [3] and in series [4] was more than 250 µM throughout.

For `CCCc1c(C)cc(C)c(-c2c(C)cc(C)c(CCC)c2O)c1O` [Compound A4, 4,4’,6,6′-Tetramethyl-3,3′-dipropyl-[1,1′-diphenyl]2,2′-diol], the minimal inhibitory concentration (MIC) in series [2], in series [3] and in series [4] was more than 250 µM in each case.

Turning to `C=CCc1c(C)cc(C)c(-c2c(C)cc(C)c(CC=C)c2O)c1O` [Compound A5, 3,3′Diallyl-4,4′,6,6′-tetramethyl-[1,1′-biphenyl]-2,2′-diol], the MIC in series [2], in series [3] and in series [4] was more than 250 µM throughout.

Turning to `C=CCc1cc(-c2c(O)cc(C)c(C)c2C)cc(C(C)(C)C)c1O` [Compound A6, 3′-Allyl-5′-(tert-butyl)-4,5,6-trimethyl-[1,1′-biphenyl]2,4′-diol], the minimal inhibitory concentration (MIC) in series [2], in series [3] and in series [4] was more than 250 µM throughout.

In the case of `C=CCc1cc(-c2cc(C)ccc2O)cc(C(C)(C)C)c1O` [Compound A8, 3′-Allyl-5′-(tert-butyl)-5-methyl-[1,1′-biphenyl]2,4′-diol], the minimum inhibitory concentration (MIC) in series [2] was 125 µM (≈ 37.1 µg/mL); in series [3], more than 250 µM; in series [4] it was 125 µM (≈ 37.1 µg/mL).

Turning to `Cc1cc(O)c(-c2cc(C(C)C)c(O)c(C(C)C)c2)c(C)c1C` [Compound A9, 3′,5′-Diisopropyl-4,5,6-trimethyl-[1,1′-biphenyl]-2,4′-diol], the MIC in series [2], in series [3] and in series [4] was more than 250 µM throughout.

As to `C=CCc1cc(-c2cc(C)c(O)cc2C(C)C)cc(CC=C)c1O` [Compound A10, 3′,5′-Diallyl-2-isopropyl-5-methyl-[1,1′-biphenyl]-4,4′-diol], the MIC in series [2] is 250 µM (≈ 80.6 µg/mL); in series [3] it was more than 250 µM; in series [4], 250 µM (≈ 80.6 µg/mL).

With `Cc1c(O)c(-c2cc(C(C)(C)C)c(O)c(C(C)(C)C)c2)c(C)c(-c2cc(C(C)(C)C)c(O)c(C(C)(C)C)c2)c1O` [Compound A11, 3,3″,5,5″-Tetra-tert-butyl-2′,5′-dimethyl-[1,1′:3′,1″-terphenyl]-4,4′,4″,6′-tetraol], the MIC in series [2], in series [3] and in series [4] was more than 250 µM in each case.

Take `Cc1cc(-c2c(O)ccc3ccccc23)cc(C)c1O` [Compound B1, 1-(4-Hydroxy-3,5-dimethylphenyl)naphthalene-2-ol]: the MIC in series [2], in series [3] and in series [4] was more than 250 µM in each case.

With `COc1cc(-c2c(O)ccc3ccccc23)cc(OC)c1O` [Compound B2, 1-(4-Hydroxy-3,5-dimethoxyphenyl)naphthalen-2-ol], the MIC in series [2], in series [3] and in series [4] was more than 250 µM throughout.

Regarding `CC(C)(C)c1cc(-c2c(O)ccc3ccccc23)cc(C(C)(C)C)c1O` [Compound B3], the MIC in series [2], in series [3] and in series [4] was 63 µM (≈ 22 µg/mL) in each case.

On to `CC(C)(C)c1cc(-c2c(O)ccc3ccc(O)cc23)cc(C(C)(C)C)c1O` [Compound B4, 1-(3,5-Di-tert-butyl-4-hydroxyphenol)naphthalene-2-7-diol], for which the MIC in series [2], in series [3] and in series [4] was 125 µM (≈ 45.6 µg/mL) in each case.

As to `CC(C)c1cc(-c2c(O)ccc3cc(Br)ccc23)cc(C(C)C)c1O` [Compound B6, 6-Bromo-1-(4-hydroxy-3,5-diisopropylphenyl)naphthalen-2-ol], the minimal inhibitory concentration (MIC) in series [2], in series [3] and in series [4] was more than 250 µM throughout.

Consider `C=CCc1cc(-c2c(O)ccc3cc(OC)ccc23)cc(C(C)(C)C)c1O` [Compound B7, 1-(3-Allyl-5-(tert-butyl)-4-hydroxyphenyl)-6-methoxynaphthalen-2-ol], for which the figures for the minimum inhibitory concentration (MIC) in series [2], in series [3] and in series [4] were 63 µM (≈ 22.8 µg/mL), 125 µM (≈ 45.3 µg/mL) and 125 µM (≈ 45.3 µg/mL), respectively.

As to `CCCc1cc(-c2c(O)ccc3cc(Br)ccc23)cc(C(C)(C)C)c1O` [Compound B12, 6-Bromo-1-(3-(tert-butyl)-4-hydroxy-5-propylphenyl)naphthalen-2-ol], the minimal inhibitory concentration (MIC) in series [2] is 250 µM (≈ 103 µg/mL); in series [3] it was more than 250 µM; in series [4] it was 250 µM (≈ 103 µg/mL).

Regarding `CC(C)c1cc(-c2c(O)ccc3cc(-n4cccn4)ccc23)cc(C(C)C)c1O` [Compound B13, 1-(4-Hydroxy-3,5-diisopropylphenyl)-6-(1H-pyrazol-1-yl)naphthalen-2-ol], the minimal inhibitory concentration (MIC) in series [2], in series [3] and in series [4] was more than 250 µM each time.

Consider `C=CCc1cc(-c2c(O)ccc3c(-c4cc(CC=C)c(O)c(C(C)(C)C)c4)c(O)ccc23)cc(C(C)(C)C)c1O` [Compound B14, 1,5-Bis(3-allyl-5-(tert-butyl)-4-hydroxyphenyl)naphthalene-2,6-diol], for which the MIC in series [2] was 16 µM (≈ 8.59 µg/mL); in series [3], 63 µM (≈ 33.8 µg/mL); in series [4] it was 32 µM (≈ 17.2 µg/mL).
